Publication PMC10902181 (Journal of neurochemistry, 2023)
Like-named read-outs stand apart in the source and are kept apart here.

Key:
Assay in all cases: TEVC current recordings from Xenopus oocytes, channel blocker inhibition
Assay type in all cases: cell-based
[1] = biological target: GluN2B-V618G-containing NMDARs (Homo sapiens, UniProt Q05586+Q13224, V618G); conditions: for % inhibition: 2B-V618G, 300 μM blocker, −40 mV; for IC50: IC50, 2B-V618G, holding −40 mV
[2] = biological target: GluN2A-N615K-containing NMDARs (Homo sapiens, UniProt Q05586+Q12879, N615K); conditions: for % inhibition: 2A-N615K, 300 μM blocker, −40 mV; for IC50: IC50, 2A-N615K, holding −40 mV
[3] = biological target: GluN1-G620R/GluN2A (Homo sapiens, UniProt Q05586+Q12879, G620R); conditions: for % inhibition: 1-G620R/2A, 300 μM blocker, −40 mV; for IC50: IC50, 1-G620R/2A, holding −40 mV
[4] = biological target: GluN2B-W607C-containing NMDARs (Homo sapiens, UniProt Q05586+Q13224, W607C); conditions: for % inhibition: 2B-W607C, 300 μM blocker, −40 mV; for IC50: IC50, 2B-W607C, holding −40 mV
[5] = biological target: GluN2B-G611V-containing NMDARs (Homo sapiens, UniProt Q05586+Q13224, G611V); conditions: for % inhibition: 2B-G611V, 300 μM blocker, −40 mV; for IC50: IC50, 2B-G611V, holding −40 mV
[6] = biological target: WT GluN1/GluN2A (Homo sapiens, UniProt Q05586+Q12879); conditions: for IC50: IC50, WT GluN1/WT 2A, holding −40 mV; for % inhibition: WT GluN1/WT 2A, 300 μM blocker, −40 mV
[7] = biological target: WT GluN1/GluN2B (Homo sapiens, UniProt Q05586+Q13224); conditions: for IC50: IC50, WT GluN1/WT 2B, holding −40 mV; for % inhibition: WT GluN1/WT 2B, 300 μM blocker, −40 mV
[8] = biological target: GluN1/GluN2A-L611Q (Homo sapiens, UniProt Q05586+Q12879, L611Q); conditions: for % inhibition: 2A-L611Q, 300 μM blocker, −40 mV; for IC50: IC50, 2A-L611Q, holding −40 mV
[9] = biological target: GluN2B-V620M-containing NMDARs (Homo sapiens, UniProt Q05586+Q13224, V620M); conditions: for % inhibition: 2B-V620M, 300 μM blocker, −40 mV; for IC50: IC50, 2B-V620M, holding −40 mV
[10] = biological target: GluN1/GluN2B-N615K (Homo sapiens, UniProt Q05586+Q13224, N615K); conditions: for % inhibition: 300 μM blocker, −40 mV
[11] = biological target: GluN2B-N616K-containing NMDARs (Homo sapiens, UniProt Q05586+Q13224, N616K); conditions: for % inhibition: 2B-N616K, 300 μM blocker, −40 mV; for IC50: IC50, 2B-N616K, holding −40 mV
[12] = biological target: GluN2A-N614S-containing NMDARs (Homo sapiens, UniProt Q05586+Q12879, N614S); conditions: for % inhibition: 2A-N614S, 300 μM blocker, −40 mV; for IC50: IC50, 2A-N614S, holding −40 mV
[13] = biological target: GluN1/GluN2B-N615I (Homo sapiens, UniProt Q05586+Q13224, N615I); conditions: for % inhibition: 2B-N615I, 300 μM blocker, −40 mV; for IC50: IC50, 2B-N615I, holding −40 mV

SMILES: COc1ccc2c(c1)[C@]13CCCC[C@@H]1[C@H](C2)N(C)CC3 [dextromethorphan]
- % inhibition ([1]; w/ 1 mM Mg^2+): 83 ± 4.0% (10)
- % inhibition ([1]; w/o Mg^2+): 85 ± 1.7% (11)^¥
- reduced potency compared to the WT receptors ([1]; GluN2B-V618G, presence of 1 mM Mg^2+): 3.2 fold
- IC50 ([1]; w/ 1 mM Mg^2+): 71 µM
- IC50 ([1]; w/o Mg^2+): 45 µM
- % inhibition ([2]; w/ 1 mM Mg^2+): 97 ± 0.9% (12)^¥
- % inhibition ([2]; w/o Mg^2+): 98 ± 1.4% (8)
- enhanced potency in comparison to WT NMDARs ([2]; GluN2A-N615K, absence of Mg^2+): 2.7 fold
- enhanced potency compared to the WT receptors ([2]; GluN2A-N615K, presence of 1 mM Mg^2+): 8.3 fold
- IC50 ([2]; w/ 1 mM Mg^2+): 3 µM
- IC50 ([2]; w/o Mg^2+): 3.8 µM
- % inhibition ([3]; w/ 1 mM Mg^2+): 96 ± 1.5% (8)^¥
- % inhibition ([3]; w/o Mg^2+): 97 ± 1.4% (14)
- enhanced potency in comparison to WT NMDARs ([3]; GluN1-G620R, absence of Mg^2+): 2.5 fold
- enhanced potency compared to the WT receptors ([3]; GluN1-G620R, presence of 1 mM Mg^2+): 5.7 fold
- IC50 ([3]; w/ 1 mM Mg^2+): 4.4 µM
- IC50 ([3]; w/o Mg^2+): 4.4 µM
- % inhibition ([4]; w/ 1 mM Mg^2+): 95 ± 1.4% (12)
- % inhibition ([4]; w/o Mg^2+): 90 ± 2.8% (11)
- reduced potency in 1 mM Mg^2+ vs absence of Mg^2+ ([4]; GluN2B-W607C): 3 fold
- IC50 ([4]; w/ 1 mM Mg^2+): 11 µM
- IC50 ([4]; w/o Mg^2+): 3.7 µM
- % inhibition ([5]; w/ 1 mM Mg^2+): 97 ± 1.0% (10)
- % inhibition ([5]; w/o Mg^2+): 94 ± 2.3% (10)
- enhanced potency compared to the WT receptors ([5]; GluN2B-G611V, presence of 1 mM Mg^2+): 3.5 fold
- IC50 ([5]; w/ 1 mM Mg^2+): 6.2 µM
- IC50 ([5]; w/o Mg^2+): 3.6 µM
- IC50 ([6]; w/ 1 mM Mg^2+): 25 µM
- IC50 ([6]; w/o Mg^2+): 11 µM
- % inhibition ([6]; w/ 1 mM Mg^2+): 88 ± 3.3% (10)
- % inhibition ([6]; w/o Mg^2+): 95 ± 1.6% (19)
- IC50 ([7]; w/ 1 mM Mg^2+): 22 µM
- IC50 ([7]; w/o Mg^2+): 4.8 µM
- % inhibition ([7]; w/ 1 mM Mg^2+): 90 ± 1.9% (18)
- % inhibition ([7]; w/o Mg^2+): 95 ± 1.2% (15)
- % inhibition ([8]; w/ 1 mM Mg^2+): 89 ± 2.3% (8)
- % inhibition ([8]; w/o Mg^2+): 91 ± 1.4% (16)
- IC50 ([8]; w/ 1 mM Mg^2+): 36 µM
- IC50 ([8]; w/o Mg^2+): 27 µM
- % inhibition ([9]; w/ 1 mM Mg^2+): 87 ± 3.2% (8)
- % inhibition ([9]; w/o Mg^2+): 93 ± 3.2% (8)
- enhanced potency in comparison to WT NMDARs ([9]; GluN2B-V620M, absence of Mg^2+): 2.7 fold
- enhanced potency compared to the WT receptors ([9]; GluN2B-V620M, presence of 1 mM Mg^2+): 6.3 fold
- IC50 ([9]; w/ 1 mM Mg^2+): 3.5 µM
- IC50 ([9]; w/o Mg^2+): 1.8 µM
- IC50 [10]: > 300 µM
- % inhibition ([10]; 2B-N615K, w/ 1 mM Mg^2+): 33 ± 3.7% (18) ^*^¥
- % inhibition ([10]; 2B-N615K, w/o Mg^2+): 14 ± 2.7% (8)^¥
- IC50 ([10]; 2B-N615K, w/ 1 mM Mg^2+, holding −40 mV): > 300 µM
- % inhibition ([11]; w/ 1 mM Mg^2+): 93 ± 1.6% (7)
- % inhibition ([11]; w/o Mg^2+): 94 ± 1.7% (10)
- enhanced potency compared to the WT receptors ([11]; GluN2B-N616K, presence of 1 mM Mg^2+): 4.9 fold
- IC50 ([11]; w/ 1 mM Mg^2+): 4.5 µM
- IC50 ([11]; w/o Mg^2+): 3.2 µM
- % inhibition ([12]; w/ 1 mM Mg^2+): 85 ± 2.7% (11)
- % inhibition ([12]; w/o Mg^2+): 85 ± 3.0% (10)^¥
- IC50 ([12]; w/ 1 mM Mg^2+): 32 µM
- IC50 ([12]; w/o Mg^2+): 22 µM
- % inhibition ([13]; w/ 1 mM Mg^2+): 94 ± 1.5% (11)
- % inhibition ([13]; w/o Mg^2+): 95 ± 1.4% (14)
- IC50 ([13]; w/ 1 mM Mg^2+): 17 µM
- IC50 ([13]; w/o Mg^2+): 15 µM
